Earlier results on one compound are cited in patent EP0763114B1, “HEPATITIS G VIRUS AND MOLECULAR CLONING THEREOF” (priority 1994, dated 1995).

Structures are written as SMILES.

The data set concerns HCV. To be noted: individuals infected with HCV, while ribavirin was administered.

For the compound `NC(=O)c1ncn([C@@H]2O[C@H](CO)[C@@H](O)[C@H]2O)n1` [ribavirin, 1-B-D-ribofuranosyl-1-2,4-triazole, 3-carboxamide], the “serum levels of alanine aminotransferase (ALT)” value is given as “significant reductions” and the viral titer result is “significant reductions”.
